# From publication PMC10809370, “Dye-Decolorizing Peroxidase of Streptomyces coelicolor (ScDyPB) Exists as a Dynamic Mixture of Kinetically Different Oligomers” (ACS Omega, 2024)
# T1: Dye-decolorizing peroxidase ScDyPB (Streptomyces coelicolor, UniProt Q9FBY9)
# T1 construct: gene SCO7193
# T1 sequence (Q9FBY9 1-316): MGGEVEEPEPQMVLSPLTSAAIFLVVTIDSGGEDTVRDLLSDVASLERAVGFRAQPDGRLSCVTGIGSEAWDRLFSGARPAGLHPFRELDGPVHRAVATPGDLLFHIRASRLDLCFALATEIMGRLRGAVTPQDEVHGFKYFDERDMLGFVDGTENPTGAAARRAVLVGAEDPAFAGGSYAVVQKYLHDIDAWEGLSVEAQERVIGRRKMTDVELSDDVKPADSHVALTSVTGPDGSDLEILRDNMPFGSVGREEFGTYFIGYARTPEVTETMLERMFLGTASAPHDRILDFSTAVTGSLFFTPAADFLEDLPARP
# B1: Dye-decolorizing peroxidase from S. coelicolor A3(2) (ScDyPB) (enzyme, Streptomyces coelicolor A3(2))
# chain: T1 sequence (Q9FBY9 1-316)
# notes: Dye-decolorizing peroxidase ScDyPB, Streptomyces coelicolor A3(2), UniProtKB Q9FBY9; molecular weight printed as 34 kDa; Heme protein, reconstituted with hemin; also called type B dye-decolorizing peroxidase of Streptomyces coelicolor; subfamily B DyP; source: E. coli BL21 (DE3), purified, reconstituted with hemin
# What was measured:
# [1] = biological target: T1, Dye-decolorizing peroxidase ScDyPB; experiment: biochemical
# [2] = biological target: T1, Dye-decolorizing peroxidase ScDyPB; experiment: initial rates of MHQ oxidation to methylquinone at […] nm, purified enzyme; type: biochemical
# [3] = biological target: T1, Dye-decolorizing peroxidase ScDyPB; experiment: dye oxidation rate at […] nm, […] dye, […] H2O2; type: biochemical
# [4] = biological target: T1, Dye-decolorizing peroxidase ScDyPB; experiment: dye oxidation rate at […] nm, […] dye, […] H2O2; type: biochemical; remark: listed apart in the source
# purified protein = substrate: OO; experiment: purified protein; details: heme heme in its resting state
# [5] = biological target: the molecule itself; experiment: SEC; Superdex 75 Increase 10/300 GL, 20 mM Tris-HCl, 0.1 M NaCl, pH 7.5; 100 uL of 18.1 uM ScDyPB injected; calibrated with standard proteins; apparent molecular weights
molecule,measurement,setting,value
"CCn1c(=NN=c2sc3cc(S(=O)(=O)O)ccc3n2CC)sc2cc(S(=O)(=O)O)ccc21 [ABTS, 2,2′-azino-di(3-ethyl-benzothiazoline-6-sulfonic acid)]",Ki,[1],4.12 ± 0.36 µM
"Cc1cc(O)ccc1O [MHQ, methylhydroquinone]","initial rates of MHQ oxidation to methylquinone at 251 nm, purified enzyme",[2],the rate of the oxidation of both ABTS and MHQ scaled linearly with the concentration of the ScDyPB in the cuvette
"Nc1c(S(=O)(=O)O)cc(Nc2ccc(S(=O)(=O)O)c(Nc3nc(Cl)nc(Cl)n3)c2)c2c1C(=O)c1ccccc1C2=O [RB4, reactive blue 4]","dye oxidation rate at 610 nm, 0.1 mM dye, 1.0 mM H2O2",[3],0.66 ± 0.04 s^–1
"Nc1c(S(=O)(=O)O)cc(Nc2cccc(S(=O)(=O)CCOS(=O)(=O)O)c2)c2c1C(=O)c1ccccc1C2=O [RB19, reactive blue 19]","dye oxidation rate at 595 nm, 0.1 mM dye, 1.0 mM H2O2",[4],0.58 ± 0.02 s^–1
B1,Km,purified protein,890 ± 60 µM
same,stoichiometry N,[5],3
